Patent publication US20120202877A1 (priority 2009, published 2012)

Tests used:
[1] = system: A/Paris/0497/2007 (H1N1, H274); assay: microbe, parasite or virus in culture; format: cell-based, influenza virus; details: for EC50: Influenza A virus, H1N1, 72 h, read-out: EC50, 50% reduction of the average plaque diameter
A/Paris/908/97 (H3N2) = assay: microbe, parasite or virus in culture; format: cell-based, influenza virus; details: for EC50: Influenza A virus, H3N2, 72 h, read-out: EC50, 50% reduction of the average plaque diameter
[2] = biological target: influenza A virus N2 sialidase [A/Paris/908/97 (H3N2)] (Influenza A virus, UniProt Q9EA36); format: biochemical
[3] = biological target: influenza A virus N1 sialidase [A/HongKong/156/97 (H5N1)] wild type (Influenza A virus, UniProt Q9W7Y7); assay: biochemical

`C=CCC1=C(C(=O)O)O[C@@H]([C@H](O)[C@H](O)CO)[C@H](NC(C)=O)[C@H]1O` [Compound 7, 5-Acetamido-2,6-anhydro-3,5-dideoxy-3-C-(prop-2′-enyl)-D-glycero-D-galacto-non-2-en-onic acid] showed an EC50 [1] of 1800 µM and an EC50 (A/Paris/908/97 (H3N2)) of over 5000 µM.
For `CC(=O)NC1C(O)C(CC=Cc2ccc(C)cc2)=C(C(=O)O)OC1C(O)C(O)CO` (stereo not shown) [Compound 9d], the “change in plaque size” value [1] was “significant decrease in plaque size”, the EC50 [1] was 80 µM and the “change in plaque size” value (A/Paris/908/97 (H3N2)) was “little or no visible difference in plaque size”. The EC50 (A/Paris/908/97 (H3N2)) was over 1000 µM.
In the case of `CC(=O)N[C@H]1[C@H]([C@H](O)[C@H](O)CO)OC(C(=O)O)=C[C@@H]1O` [Neu5Ac2en, reference compound], the EC50 [1] is reported as 20 µM, the EC50 (A/Paris/908/97 (H3N2)) is reported as 20 µM and the Ki [2] is reported as 1.24 ± 0.23 µM. For the same compound, the Ki [3] was 0.97 ± 0.15 µM.
